Test results as given in PubChem BioAssay AID330 (DTP/NCI, 2004).
Where “and” joins values, the source holds several entries; their conditions need not be identical. Identical values can stand only once. Inconclusive results and toxic doses are left out.

System: P388 leukemia ip, CD2F1 mice, survival T/C
Assay: NCI In Vivo Anticancer Drug Screen. Data for tumor model P388 Leukemia (intraperitoneal) in CD2F1 (CDF1) mice
Details: endpoint: median survival time, higher = longer survival
Outline: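 Mice carrying the transplanted tumor received test compound or vehicle. Survival was recorded in each group, and the value is the treated-group measurement divided by that of the vehicle-treated control group.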

[1] = dose: 50.0 mg/kg/injection, schedule: Q01DX005 (ip), vehicle: saline with Tween-80
[2] = dose: 100.0 mg/kg/injection, schedule: Q01DX005 (ip), vehicle: saline with Tween-80
[3] = dose: 200.0 mg/kg/injection, schedule: Q01DX005 (ip), vehicle: saline with Tween-80
[4] = dose: 60.0 mg/kg/injection, schedule: Q01DX005 (ip), vehicle: saline with Tween-80
[5] = dose: 120.0 mg/kg/injection, schedule: Q01DX005 (ip), vehicle: saline with Tween-80
[6] = dose: 240.0 mg/kg/injection, schedule: Q01DX005 (ip), vehicle: saline with Tween-80
[7] = dose: 60.0 mg/kg/injection, schedule: Q01DX005 (ip), vehicle: Klucel (hydroxypropylcellulose) (HPC)
[8] = dose: 120.0 mg/kg/injection, schedule: Q01DX005 (ip), vehicle: Klucel (hydroxypropylcellulose) (HPC)
[9] = dose: 240.0 mg/kg/injection, schedule: Q01DX005 (ip), vehicle: Klucel (hydroxypropylcellulose) (HPC)
[10] = dose: 50.0 mg/kg/injection, schedule: Q01DX005 (ip), vehicle: Klucel (hydroxypropylcellulose) (HPC)
[11] = dose: 100.0 mg/kg/injection, schedule: Q01DX005 (ip), vehicle: Klucel (hydroxypropylcellulose) (HPC)
[12] = dose: 200.0 mg/kg/injection, schedule: Q01DX005 (ip), vehicle: Klucel (hydroxypropylcellulose) (HPC)

## C=C1CCN(c2ccc(F)cc2)C1=O
dose: 4.0 mg/kg/injection, schedule: Q01DX009 (ip), vehicle: saline + alcohol
  T/C: 100 % of control and 103 % of control and 90 % of control
dose: 8.0 mg/kg/injection, schedule: Q01DX009 (ip), vehicle: saline + alcohol
  T/C: 104 % of control and 107 % of control and 94 % of control
dose: 16.0 mg/kg/injection, schedule: Q01DX009 (ip), vehicle: saline + alcohol
  T/C: 110 % of control and 97 % of control
dose: 32.0 mg/kg/injection, schedule: Q01DX009 (ip), vehicle: saline + alcohol
  T/C: 98 % of control and 103 % of control and 104 % of control
dose: 64.0 mg/kg/injection, schedule: Q01DX009 (ip), vehicle: saline + alcohol
  T/C: 98 % of control and 100 % of control and 95 % of control

## C=CCCCCCCCCC(=O)NCC(C)C
dose: 100.0 mg/kg/injection, schedule: Q04DX003 (ip), vehicle: saline with Tween-80
  T/C: 86 % of control
dose: 200.0 mg/kg/injection, schedule: Q04DX003 (ip), vehicle: saline with Tween-80
  T/C: 95 % of control
dose: 400.0 mg/kg/injection, schedule: Q04DX003 (ip), vehicle: saline with Tween-80
  T/C: 100 % of control

## O=C1c2ccccc2C(=O)c2cc3c(cc21)C1OC3C2=C1CC1C(=O)OC(=O)C1C2 (stereo not drawn)
[1]
  T/C: 111 % of control
[2]
  T/C: 93 % of control
[3]
  T/C: 94 % of control

## COC(=O)C(CO)Nc1ccccc1 (stereo not drawn)
[4]
  T/C: 103 % of control
[5]
  T/C: 99 % of control
[6]
  T/C: 96 % of control

## O=C(N/N=C/c1ccccn1)c1ccccc1
[7]
  T/C: 102 % of control
[8]
  T/C: 97 % of control
[9]
  T/C: 100 % of control

## COCCOc1cccc2c1C(=O)c1ccccc1C2=O
[1]
  T/C: 102 % of control
[2]
  T/C: 91 % of control

## Cc1cc(Br)ccc1N=Nc1c(C)noc1C
dose: 100.0 mg/kg/injection, schedule: Q04DX002 (ip), vehicle: saline
  T/C: 104 % of control
dose: 200.0 mg/kg/injection, schedule: Q04DX002 (ip), vehicle: saline
  T/C: 104 % of control
dose: 400.0 mg/kg/injection, schedule: Q04DX002 (ip), vehicle: saline
  T/C: 101 % of control

## CCOC(=O)Cc1csc(=S)n1Cc1ccccc1
[1]
  T/C: 103 % of control
[2]
  T/C: 108 % of control
[3]
  T/C: 95 % of control

## OCC(CCc1c[nH]c2ccccc12)c1c[nH]c2ccccc12 (stereo not drawn)
[7]
  T/C: 90 % of control
[8]
  T/C: 90 % of control
[9]
  T/C: 93 % of control

## CN(C)CCN(C)CC(C)(C)C(=O)/C=C/c1ccc(Cl)c(Cl)c1
dose: 3.75 mg/kg/injection, schedule: Q01DX005 (ip), vehicle: saline
  T/C: 102 % of control and 107 % of control
dose: 7.5 mg/kg/injection, schedule: Q01DX005 (ip), vehicle: saline
  T/C: 98 % of control and 95 % of control
dose: 15.0 mg/kg/injection, schedule: Q01DX005 (ip), vehicle: saline
  T/C: 99 % of control and 100 % of control and 97 % of control
dose: 30.0 mg/kg/injection, schedule: Q01DX005 (ip), vehicle: saline
  T/C: 101 % of control and 102 % of control

## C[C@@H]1CN1C1=CC(=O)C(N2C[C@H]2C)=CC1=O
dose: 0.31 mg/kg/injection, schedule: Q01DX009 (ip), vehicle: gum acacia
  T/C: 122 % of control
dose: 1.25 mg/kg/injection, schedule: Q01DX009 (ip), vehicle: gum acacia
  T/C: 169 % of control
dose: 2.5 mg/kg/injection, schedule: Q01DX009 (ip), vehicle: gum acacia
  T/C: 166 % of control and 169 % of control
dose: 5.0 mg/kg/injection, schedule: Q01DX009 (ip), vehicle: gum acacia
  T/C: 169 % of control and 173 % of control
dose: 37.0 micrograms/kg/injection, schedule: Q01DX009 (ip), vehicle: gum acacia
  T/C: 102 % of control
dose: 75.0 micrograms/kg/injection, schedule: Q01DX009 (ip), vehicle: gum acacia
  T/C: 113 % of control
dose: 150.0 micrograms/kg/injection, schedule: Q01DX009 (ip), vehicle: gum acacia
  T/C: 117 % of control
dose: 310.0 micrograms/kg/injection, schedule: Q01DX009 (ip), vehicle: gum acacia
  T/C: 111 % of control

## COc1cc2c3c(c1OC)C=C[C@@H]1CCCN(CC2)[C@H]31
dose: 7.5 mg/kg/injection, schedule: Q01DX005 (ip), vehicle: Klucel (hydroxypropylcellulose) (HPC)
  T/C: 100 % of control
dose: 15.0 mg/kg/injection, schedule: Q01DX005 (ip), vehicle: Klucel (hydroxypropylcellulose) (HPC)
  T/C: 98 % of control
dose: 30.0 mg/kg/injection, schedule: Q01DX005 (ip), vehicle: Klucel (hydroxypropylcellulose) (HPC)
  T/C: 101 % of control

## CN(C)C1=CC(=Nc2ccccc2)SC(C)(C)C1
dose: 15.0 mg/kg/injection, schedule: Q01DX005 (ip), vehicle: saline with Tween-80
  T/C: 100 % of control
dose: 30.0 mg/kg/injection, schedule: Q01DX005 (ip), vehicle: saline with Tween-80
  T/C: 100 % of control
[7]
  T/C: 100 % of control
[4]
  T/C: 99 % of control

## O=C(CCl)N1CCN(C/C=C/c2ccccc2)CC1
dose: 60.0 mg/kg/injection, schedule: Q01DX005 (ip), vehicle: saline
  T/C: 103 % of control
dose: 120.0 mg/kg/injection, schedule: Q01DX005 (ip), vehicle: saline
  T/C: 105 % of control

## c1ccc2c(-c3ccncc3)c3c(ccc4ccccc43)cc2c1
[1]
  T/C: 100 % of control
[2]
  T/C: 98 % of control
[3]
  T/C: 89 % of control

## COc1ccc(C(C)c2cc(OC)c(OC)cc2OC)cc1 (stereo not drawn)
[4]
  T/C: 102 % of control
[5]
  T/C: 102 % of control
[6]
  T/C: 105 % of control

## C=CCOc1cc2c(cc1C(C)c1ccc(OCC)cc1)OCO2 (stereo not drawn)
[1]
  T/C: 100 % of control and 104 % of control
[2]
  T/C: 112 % of control and 91 % of control
[3]
  T/C: 122 % of control and 123 % of control

## CCCCC(CC)CN(CC(CC)CCCC)C(=O)C(C)O (stereo not drawn)
[1]
  T/C: 105 % of control
[2]
  T/C: 103 % of control
[3]
  T/C: 108 % of control

## CN(C)c1c2c(=O)n(C)c(=O)n(C)c2nc2cccc[n+]12
[10]
  T/C: 95 % of control
[11]
  T/C: 106 % of control
[12]
  T/C: 104 % of control

## COc1ccc2cc1Oc1ccc(cc1)CC1c3c(cc(OC)c(OC)c3Oc3cc4c(cc3OC)CCN(C)C4C2)CCN1C (stereo not drawn)
dose: 100.0 mg/kg/injection, schedule: Q01DX001 (ip), vehicle: saline with Tween-80
  T/C: 103 % of control
dose: 200.0 mg/kg/injection, schedule: Q01DX001 (ip), vehicle: saline with Tween-80
  T/C: 92 % of control

## O=c1c2c([nH]c3c1ccc1[nH]c4c(c(=O)c13)CCCC4)CCCC2
dose: 50.0 mg/kg/injection, schedule: Q01DX009 (ip), vehicle: saline with Tween-80
  T/C: 90 % of control
dose: 100.0 mg/kg/injection, schedule: Q01DX009 (ip), vehicle: saline with Tween-80
  T/C: 91 % of control
dose: 200.0 mg/kg/injection, schedule: Q01DX009 (ip), vehicle: saline with Tween-80
  T/C: 97 % of control

## CC1=C(C#N)C(=O)NC1(C)O (stereo not drawn)
[10]
  T/C: 98 % of control and 95 % of control
[11]
  T/C: 100 % of control
[12]
  T/C: 100 % of control and 101 % of control

## Cc1c2cc[n+](C)c(C)c2cc2c1[nH]c1ccccc12
dose: 1.56 mg/kg/injection, schedule: Q04DX002 (ip), vehicle: water
  T/C: 100 % of control
dose: 3.12 mg/kg/injection, schedule: Q04DX002 (ip), vehicle: water
  T/C: 115 % of control
dose: 6.25 mg/kg/injection, schedule: Q04DX002 (ip), vehicle: water
  T/C: 117 % of control
dose: 10.0 mg/kg/injection, schedule: Q04DX002 (ip), vehicle: water
  T/C: 115 % of control
dose: 12.5 mg/kg/injection, schedule: Q04DX002 (ip), vehicle: water
  T/C: 118 % of control
dose: 20.0 mg/kg/injection, schedule: Q04DX002 (ip), vehicle: water
  T/C: 115 % of control
dose: 25.0 mg/kg/injection, schedule: Q04DX002 (ip), vehicle: water
  T/C: 115 % of control
dose: 40.0 mg/kg/injection, schedule: Q04DX002 (ip), vehicle: water
  T/C: 115 % of control
dose: 50.0 mg/kg/injection, schedule: Q04DX002 (ip), vehicle: water
  T/C: 106 % of control

## CC(=O)NC1=C(Cl)C(=O)c2ccccc2C1=O
dose: 0.78 mg/kg/injection, schedule: Q01DX009 (ip), vehicle: Klucel (hydroxypropylcellulose) (HPC)
  T/C: 98 % of control
dose: 1.56 mg/kg/injection, schedule: Q01DX009 (ip), vehicle: Klucel (hydroxypropylcellulose) (HPC)
  T/C: 100 % of control
dose: 3.13 mg/kg/injection, schedule: Q01DX009 (ip), vehicle: Klucel (hydroxypropylcellulose) (HPC)
  T/C: 107 % of control
dose: 6.25 mg/kg/injection, schedule: Q01DX009 (ip), vehicle: Klucel (hydroxypropylcellulose) (HPC)
  T/C: 104 % of control and 88 % of control

## CC/C(=C(/CC)c1ccc(OCC(=O)N/N=C2\CCC3C4CCc5cc(O)ccc5C4=CCC23C)cc1)c1ccc(OCC(=O)N/N=C2/CCC3C4CCc5cc(O)ccc5C4=CCC23C)cc1 (stereo not drawn)
dose: 50.0 mg/kg/injection, schedule: Q01DX001 (ip), vehicle: Klucel (hydroxypropylcellulose) (HPC)
  T/C: 96 % of control
dose: 100.0 mg/kg/injection, schedule: Q01DX001 (ip), vehicle: Klucel (hydroxypropylcellulose) (HPC)
  T/C: 95 % of control
dose: 200.0 mg/kg/injection, schedule: Q01DX001 (ip), vehicle: Klucel (hydroxypropylcellulose) (HPC)
  T/C: 87 % of control
